# ChEMBL document CHEMBL5291721, “A preclinical secondary pharmacology resource illuminates target-adverse drug reaction associations of marketed drugs” (Nat Commun, 2023)
# Assays:
# [1] = biological target: T1, Alpha-1A adrenergic receptor (Homo sapiens, UniProt P35348); assay type: functional, cell-based
# T1 sequence (P35348 whole entry): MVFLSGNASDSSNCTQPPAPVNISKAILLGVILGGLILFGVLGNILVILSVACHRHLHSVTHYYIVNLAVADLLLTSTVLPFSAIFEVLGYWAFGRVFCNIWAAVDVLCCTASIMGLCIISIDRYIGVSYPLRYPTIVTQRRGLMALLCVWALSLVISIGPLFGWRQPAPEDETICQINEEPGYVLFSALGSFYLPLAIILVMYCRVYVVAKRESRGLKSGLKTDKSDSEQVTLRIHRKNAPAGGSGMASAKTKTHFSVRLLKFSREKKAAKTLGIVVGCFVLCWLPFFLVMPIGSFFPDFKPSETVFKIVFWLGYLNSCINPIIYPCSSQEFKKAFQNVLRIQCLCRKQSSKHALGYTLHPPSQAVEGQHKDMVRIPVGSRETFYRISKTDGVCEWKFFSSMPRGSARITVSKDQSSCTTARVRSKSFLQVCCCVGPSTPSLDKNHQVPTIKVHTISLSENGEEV
# [2] = biological target: T2, 5-hydroxytryptamine receptor 1A (Homo sapiens, UniProt P08908); assay type: functional, cell-based
# T2 sequence (P08908 whole entry): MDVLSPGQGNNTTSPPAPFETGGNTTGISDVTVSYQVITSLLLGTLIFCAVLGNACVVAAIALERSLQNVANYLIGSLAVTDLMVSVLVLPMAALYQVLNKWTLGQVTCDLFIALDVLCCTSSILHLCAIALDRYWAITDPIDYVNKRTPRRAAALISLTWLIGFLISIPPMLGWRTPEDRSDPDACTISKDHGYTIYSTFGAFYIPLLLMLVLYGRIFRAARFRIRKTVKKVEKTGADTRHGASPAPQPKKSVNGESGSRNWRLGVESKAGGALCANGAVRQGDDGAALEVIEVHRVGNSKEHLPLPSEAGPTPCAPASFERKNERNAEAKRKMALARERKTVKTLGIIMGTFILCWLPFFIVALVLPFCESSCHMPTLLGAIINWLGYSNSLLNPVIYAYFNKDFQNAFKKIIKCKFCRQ
# [3] = biological target: T3, Muscarinic acetylcholine receptor M1 (Homo sapiens, UniProt P11229); assay type: functional
# T3 sequence (P11229 whole entry): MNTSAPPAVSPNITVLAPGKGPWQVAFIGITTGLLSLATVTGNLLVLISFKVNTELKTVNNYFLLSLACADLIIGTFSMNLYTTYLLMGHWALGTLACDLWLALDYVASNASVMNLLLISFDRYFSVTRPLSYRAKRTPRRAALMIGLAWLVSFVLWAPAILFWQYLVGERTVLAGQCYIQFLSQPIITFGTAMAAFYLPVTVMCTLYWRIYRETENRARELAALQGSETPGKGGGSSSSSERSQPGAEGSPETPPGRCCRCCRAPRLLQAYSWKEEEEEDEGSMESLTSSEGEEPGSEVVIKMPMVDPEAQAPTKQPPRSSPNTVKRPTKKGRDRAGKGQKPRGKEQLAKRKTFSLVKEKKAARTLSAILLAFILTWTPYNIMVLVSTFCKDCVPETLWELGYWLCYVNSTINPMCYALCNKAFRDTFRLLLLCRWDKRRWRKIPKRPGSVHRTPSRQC
# [4] = biological target: Growth hormone secretagogue receptor type 1 (Homo sapiens, UniProt Q92847)
# Melanocortin receptor 3 = Melanocortin receptor 3 (Homo sapiens, UniProt P41968)
# Mu-type opioid receptor = Mu-type opioid receptor (Homo sapiens, UniProt P35372)
# [5] = biological target: T3, Muscarinic acetylcholine receptor M1; assay type: functional, cell-based
# Adenosine receptor A3 = biological target: T4, Adenosine receptor A3 (Homo sapiens, UniProt P0DMS8)
# T4 sequence (P0DMS8 whole entry): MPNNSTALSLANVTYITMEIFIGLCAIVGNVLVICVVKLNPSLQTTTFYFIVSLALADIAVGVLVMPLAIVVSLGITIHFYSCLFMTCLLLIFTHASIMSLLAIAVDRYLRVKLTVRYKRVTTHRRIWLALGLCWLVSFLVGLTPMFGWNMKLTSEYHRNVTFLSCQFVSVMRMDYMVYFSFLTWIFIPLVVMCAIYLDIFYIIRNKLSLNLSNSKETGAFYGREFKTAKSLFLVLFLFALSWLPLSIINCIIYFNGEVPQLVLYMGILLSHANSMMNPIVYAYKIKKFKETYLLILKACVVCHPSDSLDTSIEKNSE
# [6] = biological target: T5, Type-1 angiotensin II receptor (Homo sapiens, UniProt P30556)
# T5 sequence (P30556 whole entry): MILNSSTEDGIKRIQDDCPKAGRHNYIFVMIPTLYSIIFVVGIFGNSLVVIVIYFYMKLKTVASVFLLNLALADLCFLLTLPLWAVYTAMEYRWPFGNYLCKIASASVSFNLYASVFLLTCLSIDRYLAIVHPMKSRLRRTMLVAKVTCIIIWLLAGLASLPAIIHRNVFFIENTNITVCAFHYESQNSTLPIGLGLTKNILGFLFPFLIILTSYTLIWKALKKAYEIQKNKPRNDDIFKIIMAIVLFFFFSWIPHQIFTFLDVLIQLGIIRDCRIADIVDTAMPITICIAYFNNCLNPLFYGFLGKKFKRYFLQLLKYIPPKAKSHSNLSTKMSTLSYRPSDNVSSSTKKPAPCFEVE
# [7] = biological target: T6, Muscarinic acetylcholine receptor M2 (Homo sapiens, UniProt P08172); assay type: functional, cell-based
# T6 sequence (P08172 whole entry): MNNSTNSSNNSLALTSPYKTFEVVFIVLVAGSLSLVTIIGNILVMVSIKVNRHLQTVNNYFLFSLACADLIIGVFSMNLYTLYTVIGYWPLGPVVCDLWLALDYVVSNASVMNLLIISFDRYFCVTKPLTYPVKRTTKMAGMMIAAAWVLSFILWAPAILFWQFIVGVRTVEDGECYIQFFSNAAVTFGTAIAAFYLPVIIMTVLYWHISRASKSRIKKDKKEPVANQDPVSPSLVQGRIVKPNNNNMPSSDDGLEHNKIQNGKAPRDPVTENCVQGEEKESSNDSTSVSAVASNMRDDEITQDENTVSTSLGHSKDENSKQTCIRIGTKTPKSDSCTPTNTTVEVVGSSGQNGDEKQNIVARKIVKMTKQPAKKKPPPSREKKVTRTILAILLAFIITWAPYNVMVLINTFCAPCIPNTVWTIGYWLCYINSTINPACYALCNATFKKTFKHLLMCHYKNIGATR
# [8] = biological target: Kappa-type opioid receptor (Homo sapiens, UniProt P41145)
# Histamine H2 receptor = Histamine H2 receptor (Homo sapiens, UniProt P25021); assay type: functional, cell-based
# Further: assay procedure not described here.
# Sequence of Mu-type opioid receptor (P35372 whole entry): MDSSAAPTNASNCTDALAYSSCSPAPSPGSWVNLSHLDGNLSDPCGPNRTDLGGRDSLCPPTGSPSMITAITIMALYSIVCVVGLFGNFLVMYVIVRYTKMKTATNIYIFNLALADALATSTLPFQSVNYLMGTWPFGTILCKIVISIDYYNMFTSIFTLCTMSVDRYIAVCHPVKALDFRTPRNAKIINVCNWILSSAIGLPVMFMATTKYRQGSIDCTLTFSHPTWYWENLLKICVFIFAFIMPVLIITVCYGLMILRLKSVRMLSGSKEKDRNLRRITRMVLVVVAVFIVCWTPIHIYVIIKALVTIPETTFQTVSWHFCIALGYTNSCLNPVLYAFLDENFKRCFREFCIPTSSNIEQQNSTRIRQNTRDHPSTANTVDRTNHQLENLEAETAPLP
# Sequence of Melanocortin receptor 3 (P41968 whole entry): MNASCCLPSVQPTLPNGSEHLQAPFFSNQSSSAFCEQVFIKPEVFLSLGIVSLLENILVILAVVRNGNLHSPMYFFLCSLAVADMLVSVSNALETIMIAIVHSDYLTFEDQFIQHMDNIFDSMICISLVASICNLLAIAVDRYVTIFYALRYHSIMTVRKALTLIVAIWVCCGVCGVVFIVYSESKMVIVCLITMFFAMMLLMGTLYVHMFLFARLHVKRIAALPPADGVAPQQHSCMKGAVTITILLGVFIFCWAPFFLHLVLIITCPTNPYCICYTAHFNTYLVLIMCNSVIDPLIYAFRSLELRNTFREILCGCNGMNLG
# Sequence of Growth hormone secretagogue receptor type 1 (Q92847 whole entry): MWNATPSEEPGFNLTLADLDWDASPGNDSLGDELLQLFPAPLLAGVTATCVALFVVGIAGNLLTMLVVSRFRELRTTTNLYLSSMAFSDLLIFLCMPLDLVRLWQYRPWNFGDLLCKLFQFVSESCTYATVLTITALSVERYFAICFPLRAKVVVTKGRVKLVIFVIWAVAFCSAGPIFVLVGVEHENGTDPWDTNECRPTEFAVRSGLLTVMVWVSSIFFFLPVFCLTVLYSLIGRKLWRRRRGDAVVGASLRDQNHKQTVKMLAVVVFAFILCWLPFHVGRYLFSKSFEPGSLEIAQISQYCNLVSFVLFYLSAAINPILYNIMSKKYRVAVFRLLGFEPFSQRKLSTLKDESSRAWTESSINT
# Sequence of Histamine H2 receptor (P25021 whole entry): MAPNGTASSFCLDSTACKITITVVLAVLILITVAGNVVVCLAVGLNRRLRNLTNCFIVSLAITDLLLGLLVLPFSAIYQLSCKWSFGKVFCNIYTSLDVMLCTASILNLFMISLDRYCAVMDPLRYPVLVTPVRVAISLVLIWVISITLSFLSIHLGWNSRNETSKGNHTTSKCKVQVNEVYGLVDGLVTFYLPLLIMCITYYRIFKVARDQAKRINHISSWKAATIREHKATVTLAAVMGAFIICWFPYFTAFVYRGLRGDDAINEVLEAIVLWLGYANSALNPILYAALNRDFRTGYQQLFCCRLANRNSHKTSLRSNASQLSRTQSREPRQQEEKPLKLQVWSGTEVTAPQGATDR
# Sequence of Kappa-type opioid receptor (P41145 whole entry): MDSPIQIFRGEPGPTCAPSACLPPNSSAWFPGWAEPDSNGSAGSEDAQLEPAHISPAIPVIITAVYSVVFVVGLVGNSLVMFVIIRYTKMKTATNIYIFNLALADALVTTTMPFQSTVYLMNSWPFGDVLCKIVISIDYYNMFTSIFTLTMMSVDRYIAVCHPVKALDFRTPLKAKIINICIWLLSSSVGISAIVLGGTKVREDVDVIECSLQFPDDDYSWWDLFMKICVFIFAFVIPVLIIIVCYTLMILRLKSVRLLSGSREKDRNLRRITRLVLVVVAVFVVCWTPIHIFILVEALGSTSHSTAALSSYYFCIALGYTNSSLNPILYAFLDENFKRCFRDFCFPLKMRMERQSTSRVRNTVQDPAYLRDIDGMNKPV
Structure (SMILES),AC50 [1] [µM],AC50 [2] [µM],AC50 [3] [µM],AC50 [4] [µM],AC50 (Melanocortin receptor 3) [µM],AC50 (Mu-type opioid receptor) [µM],AC50 [5] [µM],AC50 (Adenosine receptor A3) [µM],AC50 [6] [µM],AC50 [7] [µM],AC50 [8] [µM],AC50 (Histamine H2 receptor) [µM]
C#Cc1cccc(Nc2ncnc3cc(OCCOC)c(OCCOC)cc23)c1 [ERLOTINIB],> 30,> 30,> 30,> 30,> 30,29,1.64,25,> 30,> 30,–,–
CC1(C)O[C@@H]2[C@@H](CO[C@@]3(COS(N)(=O)=O)OC(C)(C)O[C@@H]23)O1 [TOPIRAMATE],–,> 10,> 10,> 30,> 30,> 10,> 30,> 30,> 30,> 10,> 10,> 10
